The record followed here is US20250064762A1, “A SUBSTITUTED AROMATIC DICARBONIC ACID AMIDE AS AN INHIBITOR OF THE FERROPTOSIS SUPPRESSOR PROTEIN-1 (FSP1)” (JULIUS-MAXIMILIANS-UNIVERSITÄT WÜRZBURG, priority 2021, published 2025).

One experiment deals with HT1080 cells. Briefly: Lipid droplet staining with BODIPY 493/503. The format is cell-based, human. As to conditions: CPBA 100 μM; T863 10 μM and PF-06424439 5 μM; 16 h. As to the method: HT1080 cells were seeded on glass coverslips (15,000 cells per well of 12-well plate) in complete DMEM, and incubated for 16 h with 100 μM CPBA or with 0.1% of the DMSO solvent control, in the absence or presence of inhibitors of DGAT1 and DGAT2 (10 μM T863/iDGAT1; 5 μM PF-06424439/iDGAT2). Cells were fixed with 4% para-formaldehyde, lipid droplets were stained with the neutral lipid droplet stain BODIPY 493/503 (2 μM, 30 min), and nuclei were counterstained with 4′,6-diamidino-2-phenylindole (DAPI). Cells were mounted with Immu-Mount (Fisher Scientific), and imaged by fluorescence microscopy on a THUNDER imager (THUNDER Imager Live Cell & 3D Cell Culture & 3D Assay system, Leica DMI8; Leica Microsystems), using a 63× objective.
We next investigated the impact of CPBA on triglyceride levels and ferroptosis sensitivity by first imaging lipid droplets with the neutral lipid stain BODIPY 493/503.
The diglyceride acyltransferase isoforms 1 and 2 (DGAT1, DGAT2) are required to catalyze the formation of triglycerides from diacylglycerol and acyl-CoA.

Experiment [1] has as its system GPX4-KO/FSP1-OE HT1080 cells. The experiment is described as follows: Viability of FSP1-dependent GPX4-KO cells with serial dilutions of CPBA, no FINs. In kind it is cell-based, human. The settings on record: GPX4-KO, FSP1-dependent cells treated with CPBA. As to the method: The following HT1080 fibrosarcoma cell lines were generated using CRISPR/Cas9 technology, as previously described (Doll et al., 2019): HT1080 GPX4-knockout (KO) cells (maintained in the presence of 100 μM α-tocopherol); HT1080 GPX4 knockout cells overexpressing FSP1 (GPX4-KO/FSP1-OE); GPX4-KO cells overexpressing FSP1 and re-expressing GPX4 (GPX4-KO/FSP1-OE/GPX4-OE); HT1080 FSP1-WT or FSP1-KO cells; and HT1080 FSP1-KO cells reconstituted with either FSP1-WT or FSP1-G2A. LOX-IMVI (BRAF V600E heterozygous human melanoma cells) expressing either the Venus mock vector or FSP1-Venus (Doll et al., 2019) were grown in RPMI-1640 supplemented with 10% FCS, 2 mM L-glutamine and Pen/Strep.
Next, we tested the effect of CPBA on ferroptotic cell death in GPX4-deficient HT1080 cells whose survival depends on the expression of FSP1 in order to suppress ferroptosis in the absence of GPX4. GPX4 knockout cells overexpressing FSP1 (GPX4-KO/FSP1-OE), or GPX4-KO cells overexpressing FSP1 and re-expressing GPX4 (GPX4-KO/FSP1-OE/GPX4-OE) were incubated with serial dilutions of CPBA. Note that no ferroptosis inducers (FINs) were added. Protein expression was confirmed by Western Blot as described above (see FIG. 11).

`CC1(C)Oc2ncnc(N)c2N=C1c1ccc([C@H]2CC[C@H](CC(=O)O)CC2)cc1` [T863]: in the experiment with HT1080 cells, the lipid droplets result was “blocked lipid droplet formation both in DMSO- and in CPBA-treated cells”.
On to `Clc1cccc(CN=C2Nc3ccccc3NC23CCNCC3)c1` [liproxstatin-1, reference compound], for which, in experiment [1], the “prevention of CPBA-induced cell death” value was “cell death is prevented by liproxstatin-1”.
For `CS(=O)(=O)O.O=C([C@@H]1CCCN(c2ccc3[nH]c(C4(n5cc(Cl)cn5)CC4)nc3n2)C1)N1CCCC1` [PF-06424439], in the experiment with HT1080 cells, the lipid droplets result was “blocked lipid droplet formation both in DMSO- and in CPBA-treated cells”.
